{"source": "patent US20160193325A1", "about": "(priority 2002, published 2016)", "test_system": "HCVpp", "settings": "25 μM AZT before and during infection; Huh-7", "protocol": "HCVpp were treated with 25 μM AZT (3′-azido-3′-deoxythymidine; Sigma-Aldrich, France) before and during infection of target cells (lane j).", "data": [{"smiles": "Cc1cn([C@H]2C[C@H](N=[N+]=[N-])[C@@H](CO)O2)c(=O)[nH]c1=O", "note": "[AZT, 3′-azido-3′-deoxythymidine]", "values": [{"measurement": "effect on transduction", "result": "inhibited transduction"}]}]}
